≈ marks a conversion by molar mass, not a printed value.
Tests used:
[1] = system: Candida albicans; experiment: Antifungal activity against Candida albicans by micro-broth dilution method; format: functional
[2] = system: Enterococcus faecalis; experiment: Antibacterial activity against Streptococcus faecalis NRRL B14617 by micro-broth dilution method; format: functional
[3] = system: Aeromonas hydrophila; experiment: Antibacterial activity against Aeromonas hydrophila by micro-broth dilution method; format: functional
[4] = system: Staphylococcus aureus; experiment: Antibacterial activity against Staphylococcus aureus NRRL B767 by micro-broth dilution method; format: functional
[5] = system: Bacillus cereus; experiment: Antibacterial activity against Bacillus cereus NRRL B3711 by micro-broth dilution method; format: functional
[6] = system: Salmonella typhimurium; experiment: Antibacterial activity against Salmonella Typhimurium NRRL B4420 by microbroth dilution method; format: functional, Salmonella enterica subsp. enterica serovar Typhimurium; details: Salmonella enterica
[7] = system: Nakaseomyces glabratus; experiment: Antifungal activity against Candida glabrata by broth dilution antifungal susceptibility testing; format: functional
[8] = system: Escherichia coli; experiment: Antibacterial activity against Escherichia coli NRRL B3704 by microbroth dilution method; format: functional

| MIC [1] | MIC [2] | MIC [3] | MIC [4] | MIC [5] | MIC [6] | MIC [7] | MIC [8] | Structure (SMILES) |
| --- | --- | --- | --- | --- | --- | --- | --- | --- |
| 250 µg/mL (≈ 591 µM) | 125 µg/mL (≈ 296 µM) | 250 µg/mL (≈ 591 µM) | 250 µg/mL (≈ 591 µM) | 125 µg/mL (≈ 296 µM) | 250 µg/mL (≈ 591 µM) | 250 µg/mL (≈ 591 µM) | 250 µg/mL (≈ 591 µM) | Clc1ccc(-c2csc(N3N=C(c4cccs4)CC3c3cccnc3)n2)cc1 (stereo not given) |
| 125 µg/mL (≈ 299 µM) | 250 µg/mL (≈ 597 µM) | 125 µg/mL (≈ 299 µM) | 250 µg/mL (≈ 597 µM) | 250 µg/mL (≈ 597 µM) | 125 µg/mL (≈ 299 µM) | 125 µg/mL (≈ 299 µM) | 250 µg/mL (≈ 597 µM) | COc1ccc(-c2csc(N3N=C(c4cccs4)CC3c3cccnc3)n2)cc1 (stereo not given) |
| 62.5 µg/mL (≈ 149 µM) | 250 µg/mL (≈ 597 µM) | 125 µg/mL (≈ 299 µM) | 125 µg/mL (≈ 299 µM) | 62.5 µg/mL (≈ 149 µM) | 125 µg/mL (≈ 299 µM) | 62.5 µg/mL (≈ 149 µM) | 125 µg/mL (≈ 299 µM) | COc1ccc(-c2csc(N3N=C(c4cccs4)CC3c3ccncc3)n2)cc1 (stereo not given) |
| 62.5 µg/mL (≈ 144 µM) | 125 µg/mL (≈ 288 µM) | 31.2 µg/mL (≈ 72.1 µM) | 31.2 µg/mL (≈ 72.1 µM) | 125 µg/mL (≈ 288 µM) | 125 µg/mL (≈ 288 µM) | 62.5 µg/mL (≈ 144 µM) | 250 µg/mL (≈ 577 µM) | O=[N+]([O-])c1ccc(-c2csc(N3N=C(c4cccs4)CC3c3cccnc3)n2)cc1 (stereo not given) |
| 125 µg/mL (≈ 311 µM) | 250 µg/mL (≈ 621 µM) | 250 µg/mL (≈ 621 µM) | 125 µg/mL (≈ 311 µM) | 250 µg/mL (≈ 621 µM) | 125 µg/mL (≈ 311 µM) | 125 µg/mL (≈ 311 µM) | 250 µg/mL (≈ 621 µM) | Cc1ccc(-c2csc(N3N=C(c4cccs4)CC3c3cccnc3)n2)cc1 (stereo not given) |
| 62.5 µg/mL (≈ 149 µM) | 250 µg/mL (≈ 597 µM) | 62.5 µg/mL (≈ 149 µM) | 125 µg/mL (≈ 299 µM) | 250 µg/mL (≈ 597 µM) | 125 µg/mL (≈ 299 µM) | 62.5 µg/mL (≈ 149 µM) | 125 µg/mL (≈ 299 µM) | COc1ccc(-c2csc(N3N=C(c4cccs4)CC3c3ccccn3)n2)cc1 (stereo not given) |

More lines, now with the values behind:

| Structure (SMILES) | MIC [1] | MIC [2] | MIC [3] | MIC [4] | MIC [5] | MIC [6] | MIC [7] | MIC [8] |
| --- | --- | --- | --- | --- | --- | --- | --- | --- |
| c1ccc(-c2csc(N3N=C(c4cccs4)CC3c3ccncc3)n2)cc1 (stereo not given) | 250 µg/mL (≈ 643 µM) | 31.2 µg/mL (≈ 80.4 µM) | 31.2 µg/mL (≈ 80.4 µM) | 15.6 µg/mL (≈ 40.2 µM) | 31.2 µg/mL (≈ 80.4 µM) | 62.5 µg/mL (≈ 161 µM) | 250 µg/mL (≈ 643 µM) | 250 µg/mL (≈ 643 µM) |
| Cc1ccc(-c2csc(N3N=C(c4cccs4)CC3c3ccncc3)n2)cc1 (stereo not given) | 125 µg/mL (≈ 311 µM) | 250 µg/mL (≈ 621 µM) | 125 µg/mL (≈ 311 µM) | 125 µg/mL (≈ 311 µM) | 62.5 µg/mL (≈ 155 µM) | 125 µg/mL (≈ 311 µM) | 125 µg/mL (≈ 311 µM) | 250 µg/mL (≈ 621 µM) |
| c1ccc(-c2csc(N3N=C(c4cccs4)CC3c3ccccn3)n2)cc1 (stereo not given) | 62.5 µg/mL (≈ 161 µM) | 250 µg/mL (≈ 643 µM) | 62.5 µg/mL (≈ 161 µM) | 250 µg/mL (≈ 643 µM) | 250 µg/mL (≈ 643 µM) | 125 µg/mL (≈ 322 µM) | 62.5 µg/mL (≈ 161 µM) | 125 µg/mL (≈ 322 µM) |
| Cc1ccc(-c2csc(N3N=C(c4cccs4)CC3c3ccccn3)n2)cc1 (stereo not given) | 62.5 µg/mL (≈ 155 µM) | 250 µg/mL (≈ 621 µM) | 62.5 µg/mL (≈ 155 µM) | 250 µg/mL (≈ 621 µM) | 250 µg/mL (≈ 621 µM) | 125 µg/mL (≈ 311 µM) | 62.5 µg/mL (≈ 155 µM) | 125 µg/mL (≈ 311 µM) |
| c1ccc(-c2csc(N3N=C(c4cccs4)CC3c3cccnc3)n2)cc1 (stereo not given) | 250 µg/mL (≈ 643 µM) | 250 µg/mL (≈ 643 µM) | 250 µg/mL (≈ 643 µM) | 125 µg/mL (≈ 322 µM) | 250 µg/mL (≈ 643 µM) | 250 µg/mL (≈ 643 µM) | 250 µg/mL (≈ 643 µM) | 250 µg/mL (≈ 643 µM) |
| O=[N+]([O-])c1ccc(-c2csc(N3N=C(c4cccs4)CC3c3ccccn3)n2)cc1 (stereo not given) | 125 µg/mL (≈ 288 µM) | 500 µg/mL (≈ 1150 µM) | 125 µg/mL (≈ 288 µM) | 250 µg/mL (≈ 577 µM) | 500 µg/mL (≈ 1150 µM) | 250 µg/mL (≈ 577 µM) | 125 µg/mL (≈ 288 µM) | 125 µg/mL (≈ 288 µM) |
| Clc1ccc(-c2csc(N3N=C(c4cccs4)CC3c3ccncc3)n2)cc1 (stereo not given) | 125 µg/mL (≈ 296 µM) | 62.5 µg/mL (≈ 148 µM) | 62.5 µg/mL (≈ 148 µM) | 62.5 µg/mL (≈ 148 µM) | 62.5 µg/mL (≈ 148 µM) | 62.5 µg/mL (≈ 148 µM) | 62.5 µg/mL (≈ 148 µM) | 125 µg/mL (≈ 296 µM) |
| O=[N+]([O-])c1ccc(-c2csc(N3N=C(c4cccs4)CC3c3ccncc3)n2)cc1 (stereo not given) | 125 µg/mL (≈ 288 µM) | 250 µg/mL (≈ 577 µM) | 125 µg/mL (≈ 288 µM) | 125 µg/mL (≈ 288 µM) | 62.5 µg/mL (≈ 144 µM) | 125 µg/mL (≈ 288 µM) | 125 µg/mL (≈ 288 µM) | 125 µg/mL (≈ 288 µM) |
| Clc1ccc(-c2csc(N3N=C(c4cccs4)CC3c3ccccn3)n2)cc1 (stereo not given) | 125 µg/mL (≈ 296 µM) | 250 µg/mL (≈ 591 µM) | 125 µg/mL (≈ 296 µM) | 250 µg/mL (≈ 591 µM) | 250 µg/mL (≈ 591 µM) | 250 µg/mL (≈ 591 µM) | 125 µg/mL (≈ 296 µM) | 125 µg/mL (≈ 296 µM) |

From ChEMBL document CHEMBL1143796, “Synthesis and antimicrobial activity of 1-(4-aryl-2-thiazolyl)-3-(2-thienyl)-5-aryl-2-pyrazoline derivatives” (2007)
